Results on one molecule are retold here after US20130004424A1, “METHODS FOR DETERMINING AGENTS TARGETING MENA ISOFORMS AND USES THEREOF FOR DIAGNOSIS AND TREATMENT OF METASTATIC TUMORS” (priority 2010, published 2013).

For experiment [1], the system named is Mena^INV cells. As to conditions: both in vitro and in vivo; cited from earlier work.
In experiment [2] the test system is Mena^INV cells. Put plainly: in vivo invasion assay, collection needle containing EGF and erlotinib. As to conditions: Mena^INV cells vs MTLn3-EGFP control cells; collection needle contained both EGF and erlotinib.
From the text: (B) Graphic of in vivo assay with needle collection. Primary tumor may be xenograft.
Collection needle contained both EGF and erlotinib. MTLn3-EGFP cells are control. **p<0.01, ***p<0.001.
Since cells expressing Mena^+ or Mena^INV/+ will move up an EGF gradient, when the cells expressing Mena^+ or Mena^INV/+ are in vivo, the cells expressing Mena^+ or Mena^INV/+ will move up the imposed EGF gradient and can be needle collected. If the putative agent does in fact inhibit Mena^+ or Mena^INV/+, the sensitivity of cells expressing Mena^+ or Mena^INV/+ drops and fewer cells will move up the EGF gradient.

For the molecule `C#Cc1cccc(Nc2ncnc3cc(OCCOC)c(OCCOC)cc23)c1` [erlotinib], the “resistance of cells to EGFR inhibitor” value in the experiment with Mena^INV cells [1] was “exhibit resistance”. The “sensitivity of in vivo invasion to inhibition by erlotinib” value in the experiment on Mena^INV cells [2] is “less sensitive to inhibition”.
